Laboratory results as given in patent publication US12144506B2, “Methods for aneurysm treatment” (Nectero Medical, Inc., priority 2018, dated 2024).

Test: safe delivery concentration of PGG as a function of its purity
Conditions: PGG of the stated purity; toxic impurities gallic acid and methyl gallate
Description: The concentrations of PGG which may be safely delivered to a patient may be generally proportional to the purity of the PGG. For example, gallic acid, depicted in FIG. 1B, and methyl gallate, depicted in FIG. 1C, are common cytotoxic impurities which may be removed from a source batch of PGG during the purification process. Eliminating the presence of or reducing the concentration of toxic impurities from the delivered PGG may allow higher concentrations of the PGG to be delivered due to the mitigation of the toxic side effects of impurities commonly found in isolated PGG. For instance, studies have shown that substantially 100% pure PGG may be safely delivered at concentrations up to approximately 0.330% (w/v), 95% pure PGG may be safely delivered at concentrations up to approximately 0.125% (w/v), and 85% pure PGG may be safely delivered at concentrations up to approximately 0.06% (w/v). Delivery of PGG in higher concentrations may enhance the amount of uptake of PGG by the target tissue which may increase the efficacy of the PGG treatment. Delivery of PGG in higher concentrations may increase the rate of uptake of PGG by the tissue allowing the same amount of uptake in shorter delivery times. […]

Substance | concentration up to which PGG may be safely delivered
1,2,3,4,6-pentagalloyl glucose [85% pure PGG] | ≤ 0.06 % (w/v)
1,2,3,4,6-pentagalloyl glucose [substantially 100% pure PGG] | ≤ 0.330 % (w/v)
